Results as given in ChEMBL document CHEMBL1909294, “Translating clinical findings into knowledge in drug safety evaluation--drug induced liver injury prediction system (DILIps)” (PLoS Comput Biol, 2011).

Columns and labels:
Hepatotoxicity [1] = system: Hepatotoxicity;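 as to HepSE Combined Scores: combined hepatic side effect score as listed in the training data of the Drug Induced Liver Injury Prediction System (DILIps)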;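 as to HepSE cholecystitis: Cholecystitis-related hepatic side effect score drawn from the DILIps (drug-induced liver injury prediction) training data set; call rule not given here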;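 as to HepSE cirrhosis: cirrhosis hepatic side effect score taken from the DILIps (drug-induced liver injury prediction) training set; call rule not given here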;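 as to HepSE hepatitis: Hepatitis-related hepatic side effect score taken from the training data of DILIps, a prediction system for drug-induced liver injury; call rule not given here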;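 as to HepSE hepatomegaly: hepatic side effect score for hepatomegaly, taken from the training set of the DILIps drug-induced liver injury prediction system; call rule not given here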;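 as to HepSE jaundice: Jaundice-related hepatic side-effect score drawn from the training data of the DILIps (drug-induced liver injury prediction system); call rule not given here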; as to HepSE liver disease: call rule not given here
Hepatotoxicity [2] = system: Hepatotoxicity; remark: listed apart in the source;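 as to HepSE Combined Scores: combined hepatic side effect score as listed in the training data of the Drug Induced Liver Injury Prediction System (DILIps)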;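 as to HepSE cholecystitis: Cholecystitis-related hepatic side effect score drawn from the DILIps (drug-induced liver injury prediction) training data set; call rule not given here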;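 as to HepSE cirrhosis: cirrhosis hepatic side effect score taken from the DILIps (drug-induced liver injury prediction) training set; call rule not given here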;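 as to HepSE hepatitis: Hepatitis-related hepatic side effect score taken from the training data of DILIps, a prediction system for drug-induced liver injury; call rule not given here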;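 as to HepSE hepatomegaly: hepatic side effect score for hepatomegaly, taken from the training set of the DILIps drug-induced liver injury prediction system; call rule not given here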;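 as to HepSE jaundice: Jaundice-related hepatic side-effect score drawn from the training data of the DILIps (drug-induced liver injury prediction system); call rule not given here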; as to HepSE liver disease: call rule not given here
Hepatotoxicity [3] = system: Hepatotoxicity; remark: listed apart in the source;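 as to HepSE Combined Scores: combined hepatic side effect score as listed in the training data of the Drug Induced Liver Injury Prediction System (DILIps)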;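 as to HepSE cirrhosis: cirrhosis hepatic side effect score taken from the DILIps (drug-induced liver injury prediction) training set; call rule not given here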;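 as to HepSE hepatitis: Hepatitis-related hepatic side effect score taken from the training data of DILIps, a prediction system for drug-induced liver injury; call rule not given here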;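 as to HepSE hepatomegaly: hepatic side effect score for hepatomegaly, taken from the training set of the DILIps drug-induced liver injury prediction system; call rule not given here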;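 as to HepSE jaundice: Jaundice-related hepatic side-effect score drawn from the training data of the DILIps (drug-induced liver injury prediction system); call rule not given here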; as to HepSE liver disease: call rule not given here
Hepatotoxicity [4] = system: Hepatotoxicity; remark: listed apart in the source;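 as to HepSE Combined Scores: combined hepatic side effect score as listed in the training data of the Drug Induced Liver Injury Prediction System (DILIps)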;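 as to HepSE cirrhosis: cirrhosis hepatic side effect score taken from the DILIps (drug-induced liver injury prediction) training set; call rule not given here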;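 as to HepSE hepatitis: Hepatitis-related hepatic side effect score taken from the training data of DILIps, a prediction system for drug-induced liver injury; call rule not given here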;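 as to HepSE hepatomegaly: hepatic side effect score for hepatomegaly, taken from the training set of the DILIps drug-induced liver injury prediction system; call rule not given here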;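 as to HepSE jaundice: Jaundice-related hepatic side-effect score drawn from the training data of the DILIps (drug-induced liver injury prediction system); call rule not given here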; as to HepSE liver disease: call rule not given here
Hepatotoxicity [5] = system: Hepatotoxicity; remark: listed apart in the source; as to HepSE liver disease: call rule not given here
Hepatotoxicity [6] = system: Hepatotoxicity; remark: listed apart in the source; as to HepSE liver disease: call rule not given here
Hepatotoxicity [7] = system: Hepatotoxicity; remark: listed apart in the source
Hepatotoxicity [8] = system: Hepatotoxicity; remark: listed apart in the source
Hepatotoxicity [9] = system: Hepatotoxicity; remark: listed apart in the source
Hepatotoxicity [10] = system: Hepatotoxicity; remark: listed apart in the source
Hepatotoxicity [11] = system: Hepatotoxicity; remark: listed apart in the source
Hepatotoxicity [12] = system: Hepatotoxicity; remark: listed apart in the source
Hepatotoxicity [13] = system: Hepatotoxicity; remark: listed apart in the source
Hepatotoxicity [14] = system: Hepatotoxicity; remark: listed apart in the source

Row | Compound | HepSE_hepatitis (Hepatotoxicity [1]) | HepSE_jaundice (Hepatotoxicity [2]) | HepSE_hepatomegaly (Hepatotoxicity [3]) | HepSE_cirrhosis (Hepatotoxicity [4]) | HepSE_liver disease (Hepatotoxicity [5]) | HepSE_hepatic necrosis (Hepatotoxicity [6]) | HepSE_Combined Scores (Hepatotoxicity [7]) | HepSE_cholecystitis (Hepatotoxicity [8]) | HepSE_elevated liver function tests (Hepatotoxicity [9]) | HepSE_liver function tests abnormal (Hepatotoxicity [10]) | HepSE_liver fatty (Hepatotoxicity [11]) | HepSE_hepatic failure (Hepatotoxicity [12]) | HepSE_cholelithiasis (Hepatotoxicity [13]) | HepSE_bilirubinemia (Hepatotoxicity [14])
1 | CC(CCc1ccccc1)NCC(O)c1ccc(O)c(C(N)=O)c1 (stereo not drawn) [LABETALOL] | 1 | 1 | 0 | 0 | 0 | 1 | 4 | 0 | 1 | 0 | 0 | 0 | 0 | 0
2 | OC[C@H]1O[C@@H](O[C@@H]2[C@@H](CO)O[C@](O)(CO)[C@H]2O)[C@H](O)[C@@H](O)[C@H]1O [LACTULOSE] | 0 | 0 | 0 | 0 | 0 | 0 | 0 | 0 | 0 | 0 | 0 | 0 | 0 | 0
3 | Nc1ccn([C@@H]2CS[C@H](CO)O2)c(=O)n1 [LAMIVUDINE] | 0 | 1 | 1 | 0 | 0 | 0 | 3 | 0 | 0 | 0 | 1 | 0 | 0 | 0
4 | Nc1nnc(-c2cccc(Cl)c2Cl)c(N)n1 [LAMOTRIGINE] | 1 | 0 | 0 | 0 | 0 | 0 | 3 | 0 | 0 | 1 | 0 | 0 | 0 | 1
5 | CC(C)[C@@H]1NC(=O)[C@H](CCCCN)NC(=O)[C@@H](Cc2c[nH]c3ccccc23)NC(=O)[C@H](Cc2ccc(O)cc2)NC(=O)[C@@H](NC(=O)[C@H](N)Cc2ccc3ccccc3c2)CSSC[C@@H](C(=O)N[C@H](C(N)=O)[C@@H](C)O)NC1=O [LANREOTIDE] | 0 | 0 | 1 | 0 | 0 | 0 | 4 | 1 | 0 | 0 | 0 | 0 | 1 | 1
6 | Cc1c(OCC(F)(F)F)ccnc1C[S+]([O-])c1nc2ccccc2[nH]1 (stereo not drawn) [LANSOPRAZOLE] | 0 | 1 | 0 | 0 | 0 | 0 | 4 | 0 | 0 | 1 | 0 | 0 | 1 | 1
7 | CC(C)OC(=O)CCC/C=C\C[C@@H]1[C@@H](CC[C@@H](O)CCc2ccccc2)[C@H](O)C[C@@H]1O [LATANOPROST] | 0 | 0 | 0 | 0 | 0 | 0 | 0 | 0 | 0 | 0 | 0 | 0 | 0 | 0
